The test deals with T1, B. anthracis DHFR (Bacillus anthracis, UniProt Q81R22).
T1 construct: gene dfrA
T1 sequence (Q81R22 1-162): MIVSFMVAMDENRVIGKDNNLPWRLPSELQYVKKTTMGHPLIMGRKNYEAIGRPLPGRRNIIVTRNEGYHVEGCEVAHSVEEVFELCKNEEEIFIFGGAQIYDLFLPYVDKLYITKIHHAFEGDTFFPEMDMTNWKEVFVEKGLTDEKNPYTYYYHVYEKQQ
Kind of test: biochemical.
Regarding `COc1cc(Cc2cnc(N)nc2N)cc(/C=C/C(=O)N2N=Cc3ccccc3C2C)c1OC` (racemic) [6a, (±)-(E)-3-(5-((2,4-Diaminopyrimidin-5-yl)methyl)-2,3-dimethoxyphenyl)-1-(1-methylphthalazin-2(1H)-yl)prop-2-en-1-one], the affinity corresponds to a Ki of 8.8 ± 0.2 nM.
`CCC1c2ccccc2C=NN1C(=O)/C=C/c1cc(Cc2cnc(N)nc2N)cc(OC)c1OC` (racemic) [6b, (±)-(E)-3-(5-((2,4-Diaminopyrimidin-5-yl)methyl)-2,3-dimethoxyphenyl)-1-(1-ethylphthalazin-2(1H)-yl)prop-2-en-1-one]: the Ki stood at 6.8 ± 0.2 nM.
The same measure for `CCCCC1c2ccccc2C=NN1C(=O)/C=C/c1cc(Cc2cnc(N)nc2N)cc(OC)c1OC` (racemic) [6c, (±)-(E)-1-(1-n-Butylphthalazin-2(1H)-yl)-3-(5-((2,4-diaminopyrimidin-5-yl)methyl)-2,3-dimethoxyphenyl)prop-2-en-1-one]: 7.9 ± 0.2 nM; for `CCC(C)C1c2ccccc2C=NN1C(=O)/C=C/c1cc(Cc2cnc(N)nc2N)cc(OC)c1OC` (racemic) [6d, (±)-(E)-1-(1-s-Butylphthalazin-2(1H)-yl)-3-(5-((2,4-diaminopyrimidin-5-yl)methyl)-2,3-dimethoxyphenyl)prop-2-en-1-one]: 10.4 ± 0.2 nM; for `COc1cc(Cc2cnc(N)nc2N)cc(/C=C/C(=O)N2N=Cc3ccccc3C2C2CC2)c1OC` (racemic) [6e, (±)-(E)-1-(1-Cyclopropylphthalazin-2(1H)-yl)-3-(5-((2,4-diaminopyrimidin-5-yl)methyl)-2,3-dimethoxyphenyl)prop-2-en-1-one]: 4.9 ± 0.2 nM.
The same measure for `COc1cc(Cc2cnc(N)nc2N)cc(/C=C/C(=O)N2N=Cc3ccccc3C2c2ccco2)c1OC` (racemic) [6f, (±)-(E)-3-(5-((2,4-Diaminopyrimidin-5-yl)methyl)-2,3-dimethoxyphenyl)-1-(1-(furan-2-yl)phthalazin-2(1H)-yl)prop-2-en-1-one]: 5.9 ± 0.2 nM; for `COc1cc(Cc2cnc(N)nc2N)cc(/C=C/C(=O)N2N=Cc3ccccc3C2c2cccs2)c1OC` (racemic) [6g, (±)-(E)-3-(5-((2,4-Diaminopyrimidin-5-yl)methyl)-2,3-dimethoxyphenyl)-1-(1-(thiophen-2-yl)-phthalazin-2(1H)-yl)prop-2-en-1-one]: 8.4 ± 0.2 nM; for `COc1cc(Cc2cnc(N)nc2N)cc(/C=C/C(=O)N2N=Cc3ccccc3C2c2ccccn2)c1OC` (racemic) [6h, (±)-(E)-3-(5-((2,4-Diaminopyrimidin-5-yl)methyl)-2,3-dimethoxyphenyl)-1-(1-(pyridin-2-yl)phthalazin-2(1H)-yl)prop-2-en-1-one]: 9 ± 0.2 nM.
`COc1cc(Cc2cnc(N)nc2N)cc(/C=C/C(=O)N2N=Cc3ccccc3C2CC(=O)OC(C)(C)C)c1OC` (racemic) [11a, t-Butyl (±)-(E)-2-(2-(3-(5-((2,4-Diaminopyrimidin-5-yl)methyl)-2,3-dimethoxyphenyl)acryloyl)-phthal-azin-2(1H)-yl)acetate]: the Ki was 59 ± 0.9 nM.
`CCOC(=O)CC1c2ccccc2C=NN1C(=O)/C=C/c1cc(Cc2cnc(N)nc2N)cc(OC)c1OC` (racemic) [11b, Ethyl (±)-(E)-2-(2-(3-(5-((2,4-Diaminopyrimidin-5-yl)methyl)-(2,3-dimethoxyphenyl)acryloyl)-phthal-azin-2(1H)-yl)acetate] showed an inhibitory constant (Ki) of 24.9 ± 0.3 nM.
As to `COC(=O)CC1c2ccccc2C=NN1C(=O)/C=C/c1cc(Cc2cnc(N)nc2N)cc(OC)c1OC` (racemic) [11c, Methyl (±)-(E)-2-(2-(3-(5-((2,4-Diaminopyrimidin-5-yl)methyl)-2,3-dimethoxyphenyl)acryloyl)-phthal-azin-2(1H)-yl)acetate], affinity was put at a Ki of 20 ± 0.3 nM.

For the origin of these results see publication PMC4016962 (Molecules, 2014).
